Test results reported in patent US7410655B2, “Anticancer agent” (Nobel Limited Liability Company, priority 2001, dated 2008).

System: PA-23 rhabdomyosarcoma
Assay: PA-23 rhabdomyosarcoma lung metastases after inoculation in the caudal vein of rats
Type: in vivo
Details: Example 2; 0.003 mg/ml in sodium chloride isotonic solution
Protocol: The preparation anti-tumor action was tested on female white rats.
The PA-23 rhabdomyosarcoma cell suspension was inoculated in the caudal vein of all rats, being generally used as a model for investigating the ability of such preparations to inhibit stroma development, which is characteristic of most malignant tumors.
All the animals were divided into 5 groups. On the following day after the inoculation a physiological solution was intra-abdominal injected into the rats of Group 1 (0.5 ml per animal); 0.1 ml of the preparation—into the rats of Group 2, 0.3 ml of the preparation—into the rats of Group 3; 0.5 ml of the preparation—into the rats of Group 4; and 0.8 ml of the preparation—into the rats of Group 5. Prior to administration the preparation had been diluted with a physiological solution in the ratio of 1 to 10.
Subsequent administration of the preparation […] was carried out every third day. On the 20 th day following the tumoral inoculation the rats were destroyed. Their bodies were dissected, the number of metastases in their lungs calculated and their respective weight determined by means of analytical balance weighing.
As in Example 1, the PA-23 rhabdomyosarcomas were used as a model. Tumoral inoculation was performed in a similar way. The laboratory animals were also divided into groups. The sodium chloride isotonic solution was injected into Group 1 (control), potassium tetrachloroplatinate in the sodium chloride isotonic solution—into Group 2, ammonium lignohumic acid salts in the sodium chloride isotonic solution were injected into Group 3, injections of the proposed preparation diluted with a physiological solution in the ratio of 1 to 10 were given to Group 4.

## [Cl][Pt-2]([Cl])([Cl])[Cl].[K+].[K+] [Potassium tetrachloroplatinate solution, potassium tetrachloroplatinate]
  Average number of metastases per rat: 33.2 ± 6.2
  Average weight of 1 metastasis: 42.9 ± 4.3 mg
  Average weight of 1 metastasis, % of the Control Group: 88.5%
  Number of metastases: 531
